Structures are written as SMILES.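 Growth conditions: 96-well plates. Treatment: test compound, 48 hours, 5 concentrations. Analysis: linear interpolation between bracketing concentrations; unreached endpoints set to highest concentration. The concentration for 50% growth inhibition is given as GI50.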 Activity calls are given as the source filed them. Rule as the data show it: active = GI50 up to about 1.1 µM and inactive = higher.

Consider 11 molecules from ChEMBL document CHEMBL1201862, “PubChem BioAssay data set” (2004).

Test systems include A498; SF-295; SK-OV-3; MDA-MB-435; COLO 205; NCI-H23; HOP-92; HT-29; U-251; DU-145; SR; M14; SK-MEL-2; HCT-116; HOP-62; EKVX; UACC-257; SK-MEL-5; Malme-3M; IGROV-1.
Holding throughout (test): growth of human tumour cells (NCI), 48 h

As for `CCN(CC)CCNc1ccc2nnn3c4ccc(OCCN(CC)CC)cc4c(=O)c1c23`, the GI50 in the experiment with A498 is > 100 µM (inactive); in the experiment with SF-295, 65.3 µM (inactive); in the experiment on SK-OV-3, > 100 µM (inactive); in the experiment with MDA-MB-435, 49.5 µM (inactive); with COLO 205, 30.6 µM (inactive); with NCI-H23 it was 88.5 µM (inactive). In addition, the GI50 was 51.9 µM (inactive) with HOP-92; 18.5 µM (inactive) in the experiment on HT-29; 60.3 µM (inactive) in the experiment with U-251; 42.3 µM (inactive) with DU-145; 19.4 µM (inactive) in the experiment on SR; > 100 µM (inactive) in the experiment with M14. Moreover, the GI50 was > 100 µM (inactive) with SK-MEL-2; 30 µM (inactive) in the experiment on HCT-116; 19.4 µM (inactive) in the experiment with HOP-62; 71 µM (inactive) in the experiment on EKVX; > 100 µM (inactive) with UACC-257.
As to `COc1cccc(NC(=O)CC(=O)N2N=C(C)C(/N=N/c3ccc(C(=O)O)cc3)C2=O)c1` (configuration not stated), the GI50 in the experiment on SF-295 was > 100 µM (inactive); in the experiment with MDA-MB-435, > 100 µM (inactive); in the experiment with COLO 205, > 100 µM (inactive); in the experiment with NCI-H23, > 100 µM (inactive); in the experiment on HT-29, 93.8 µM (inactive); in the experiment with DU-145, > 100 µM (inactive). The GI50 in the experiment on SR, in the experiment on M14, in the experiment with SK-MEL-2, with SK-MEL-5, in the experiment on HCT-116 and in the experiment with HOP-62 was > 100 µM (inactive) each time. Further, the GI50 with EKVX is 25.4 µM (inactive); in the experiment on UACC-257 it was > 100 µM (inactive); with Malme-3M it was 56.6 µM (inactive); with IGROV-1 it was 46.7 µM (inactive).
Turning to `O=C1c2ccccc2-c2nc(/C=C/c3ccccc3)cc3c2c1nc1ccccc13`, the GI50 with A498 is 60.1 µM (inactive); in the experiment with SF-295, 23 µM (inactive); in the experiment with SK-OV-3, 34.1 µM (inactive); with MDA-MB-435, 13.9 µM (inactive); with COLO 205, 20.5 µM (inactive); in the experiment with NCI-H23, 12.1 µM (inactive). Moreover, the GI50 is 26.5 µM (inactive) in the experiment with HOP-92; 30.8 µM (inactive) in the experiment on HT-29; 17.7 µM (inactive) with U-251; 68.4 µM (inactive) in the experiment on DU-145; 1.8 µM (inactive) with SR; 26.2 µM (inactive) in the experiment on M14. Besides, the GI50 is 21.6 µM (inactive) with SK-MEL-2; 2.32 µM (inactive) in the experiment with SK-MEL-5; 17.4 µM (inactive) in the experiment with HCT-116; 16.3 µM (inactive) in the experiment on HOP-62; 53.8 µM (inactive) with EKVX; 89.5 µM (inactive) in the experiment on UACC-257. The GI50 with IGROV-1 was 20.4 µM (inactive).
For the molecule `NC(=O)c1c(NC=O)ncn1C1OCC(O)C(O)C1O` (configuration not stated), the GI50 in the experiment with SF-295, with SK-OV-3, in the experiment with MDA-MB-435, in the experiment on COLO 205, in the experiment with NCI-H23 and in the experiment with HOP-92 was > 100 µM (inactive) each time. For the same molecule, the GI50 in the experiment on HT-29, with U-251, in the experiment on DU-145, in the experiment on SR, in the experiment with SK-MEL-2 and in the experiment with SK-MEL-5 was > 100 µM (inactive) in each case. In addition, the GI50 in the experiment on HCT-116, in the experiment with HOP-62, with EKVX, with UACC-257, with Malme-3M and in the experiment with IGROV-1 was > 100 µM (inactive) each time.
Regarding `Cc1csc(-c2cn(C)c3c2C(=O)C(=N)C=C3O)n1`, the GI50 with A498 was 12.2 µM (inactive); in the experiment with SF-295 it was 2.37 µM (inactive); with SK-OV-3, 21.2 µM (inactive); in the experiment on MDA-MB-435, 4.28 µM (inactive); in the experiment on COLO 205 it was 4.53 µM (inactive); with NCI-H23, 2.79 µM (inactive). Also, the GI50 in the experiment on HOP-92 was > 100 µM (inactive); with HT-29 it was 8.69 µM (inactive); with U-251, 37.1 µM (inactive); with DU-145, 4.12 µM (inactive); with SR, 2.52 µM (inactive); in the experiment on M14, 3.74 µM (inactive). In addition, the GI50 in the experiment on SK-MEL-2 is 19.8 µM (inactive); with SK-MEL-5 it was 1.53 µM (inactive); in the experiment with HCT-116, 8.3 µM (inactive); with HOP-62, 6.89 µM (inactive); in the experiment with EKVX it was 3.37 µM (inactive); in the experiment on UACC-257, 4.26 µM (inactive). Moreover, the GI50 in the experiment on IGROV-1 is 2.31 µM (inactive).
Consider `O=C1OC(=O)C2=C1C(c1cccs1)C=C(c1cccnc1)N2c1ccncc1` (configuration not stated), for which the GI50 was 18.7 µM (inactive) with A498; 20.9 µM (inactive) in the experiment with SF-295; 24.9 µM (inactive) in the experiment on SK-OV-3; 20 µM (inactive) in the experiment with MDA-MB-435; 17.5 µM (inactive) in the experiment with COLO 205; 17.6 µM (inactive) in the experiment with NCI-H23. For the same molecule, the GI50 was 12.8 µM (inactive) in the experiment with HOP-92; 16.8 µM (inactive) in the experiment on HT-29; 16.9 µM (inactive) in the experiment on U-251; 16.6 µM (inactive) with DU-145; 1.12 µM (active) with SR; 13.2 µM (inactive) in the experiment with M14. Also, the GI50 is 15.4 µM (inactive) in the experiment on SK-MEL-2; 17.4 µM (inactive) in the experiment with SK-MEL-5; 14.3 µM (inactive) in the experiment on HCT-116; 15.8 µM (inactive) in the experiment with HOP-62; 14 µM (inactive) in the experiment on EKVX; 12.3 µM (inactive) with UACC-257. Also, the GI50 with IGROV-1 is 13.8 µM (inactive).
For the molecule `COc1ccc(C(=O)CCN(C)C)c2ccccc12`, the GI50 with A498 was 27.4 µM (inactive); with SF-295, > 100 µM (inactive); in the experiment on SK-OV-3, > 100 µM (inactive); in the experiment on MDA-MB-435, 19.5 µM (inactive); in the experiment on COLO 205, 18.6 µM (inactive); in the experiment on NCI-H23 it was 20.8 µM (inactive). For the same molecule, the GI50 was 19.5 µM (inactive) in the experiment with HOP-92; 25.7 µM (inactive) in the experiment with HT-29; 18.2 µM (inactive) in the experiment on U-251; 28.2 µM (inactive) in the experiment with DU-145; 34.3 µM (inactive) in the experiment with M14; 19.5 µM (inactive) with SK-MEL-2. For the same molecule, the GI50 in the experiment with SK-MEL-5 was > 56.8 µM (inactive); with HCT-116 it was 21.8 µM (inactive); in the experiment on HOP-62 it was 24.1 µM (inactive); in the experiment on EKVX, 24.7 µM (inactive); with UACC-257, > 40.9 µM (inactive); in the experiment on Malme-3M it was 17.8 µM (inactive). Further, the GI50 with IGROV-1 is 19.4 µM (inactive).
As to `CNC(=O)Oc1ccc(-c2cn3cc(OC(=O)NC)ccc3n2)cc1`, the GI50 with A498 is 66.4 µM (inactive); in the experiment with SF-295 it was 64.6 µM (inactive); in the experiment on SK-OV-3, > 100 µM (inactive); in the experiment with MDA-MB-435, 31.7 µM (inactive); in the experiment with COLO 205, 41.4 µM (inactive); in the experiment on NCI-H23, 87.3 µM (inactive). Further, the GI50 in the experiment with HOP-92 is > 100 µM (inactive); in the experiment on HT-29, 41.5 µM (inactive); with U-251 it was 36.9 µM (inactive); with DU-145, 68.9 µM (inactive); in the experiment with SR it was 21 µM (inactive); in the experiment with M14, 41.7 µM (inactive). Also, the GI50 in the experiment with SK-MEL-2 was > 100 µM (inactive); in the experiment with SK-MEL-5, 26.7 µM (inactive); in the experiment on HCT-116, 33.1 µM (inactive); with HOP-62, 80.4 µM (inactive); in the experiment with EKVX, 96.4 µM (inactive); in the experiment with UACC-257, > 100 µM (inactive). Besides, the GI50 in the experiment on IGROV-1 is 54 µM (inactive).
Regarding `Nc1nc(SC/C=C/c2ccccc2)c2[nH]cnc2n1`, the GI50 in the experiment on A498, with SF-295, in the experiment with SK-OV-3, with MDA-MB-435, in the experiment on COLO 205 and in the experiment with NCI-H23 was > 100 µM (inactive) throughout. The GI50 is > 100 µM (inactive) with HT-29; > 100 µM (inactive) with U-251; 94.2 µM (inactive) with DU-145; 45.7 µM (inactive) in the experiment on SR; 71.8 µM (inactive) in the experiment on M14; 91 µM (inactive) with SK-MEL-2. The GI50 was > 100 µM (inactive) with SK-MEL-5; > 100 µM (inactive) with HCT-116; 83.2 µM (inactive) in the experiment on HOP-62; > 100 µM (inactive) with EKVX; > 100 µM (inactive) in the experiment on UACC-257; > 100 µM (inactive) with Malme-3M. Also, in the experiment with IGROV-1, the GI50 was 22.2 µM (inactive).
As for `COc1ccc(C2C3CCc4ccccc4C3=NN2S(=O)(=O)c2ccc(Cl)cc2)cc1` (configuration not stated), the GI50 with SF-295 was 18.2 µM (inactive); in the experiment on SK-OV-3, 0.0995 µM (active); in the experiment on MDA-MB-435 it was 2.07 µM (inactive); in the experiment with COLO 205 it was 6.01 µM (inactive); in the experiment on NCI-H23, 33.3 µM (inactive); in the experiment with HOP-92, 20 µM (inactive). Moreover, the GI50 with HT-29 was 18.1 µM (inactive); in the experiment with U-251 it was 17.6 µM (inactive); in the experiment with DU-145, 30 µM (inactive); in the experiment on SR, 3.01 µM (inactive); in the experiment with M14, 18.3 µM (inactive); in the experiment on SK-MEL-2, 28.4 µM (inactive). The GI50 with SK-MEL-5 was 16 µM (inactive); in the experiment on HCT-116 it was 18.3 µM (inactive); in the experiment with HOP-62, 31.8 µM (inactive); in the experiment on EKVX, 35.7 µM (inactive); with UACC-257, 17.3 µM (inactive); in the experiment on Malme-3M it was 59.3 µM (inactive). The GI50 with IGROV-1 is 2.61 µM (inactive).
With `O=NN1CCNC1Cc1ccccc1` (configuration not stated), the GI50 in the experiment on SF-295 was 49 µM (inactive); with SK-OV-3, 75.2 µM (inactive); with MDA-MB-435 it was > 100 µM (inactive); with COLO 205 it was > 100 µM (inactive); with NCI-H23 it was 72.1 µM (inactive); in the experiment with HOP-92, > 100 µM (inactive). Besides, the GI50 in the experiment with HT-29 was > 100 µM (inactive); in the experiment on U-251, 33.3 µM (inactive); in the experiment with DU-145, 50.9 µM (inactive); in the experiment on SR it was 23.8 µM (inactive); in the experiment on M14, 41.6 µM (inactive); in the experiment with SK-MEL-5 it was 72.6 µM (inactive). Besides, the GI50 in the experiment on HCT-116 is 71.6 µM (inactive); with HOP-62, 58.5 µM (inactive); in the experiment on EKVX, > 100 µM (inactive); with UACC-257 it was > 100 µM (inactive); with Malme-3M, > 100 µM (inactive); with IGROV-1, > 100 µM (inactive).
